Laboratory results reported in ChEMBL document CHEMBL3259812, “Structural modifications of 4-aryl-4-oxo-2-aminylbutanamides and their acetyl- and butyrylcholinesterase inhibitory activity. Investigation of AChE-ligand interactions by docking calculations and molecular dynamics simulations” (Eur J Med Chem, 2014).
pIC50, pKi: −log10 of the molar value. The source made the active and inactive calls. The calls are words filed in the database; no cut-off is given here.

How the values were obtained:
Cholinesterase [1] = biological target: T1, Cholinesterase (Equus caballus, UniProt P81908)
Description: (§1) Inhibition of horse serum BChE using butyrylthiocholine iodide as substrate preincubated for 35 mins followed by enzyme addition measured after 3 mins by Ellman's method

[2] = biological target: Cholinesterase (Equus caballus) (UniProt P81908); test: Inhibition of horse serum BChE using butyrylthiocholine iodide as substrate assessed as residual activity at 15 uM preincubated for 35 mins followed by enzyme addition measured after 3 mins by Ellman's method relative to control
[3] = biological target: Cholinesterase (Equus caballus) (UniProt P81908); test: Inhibition of horse serum BChE using butyrylthiocholine iodide as substrate assessed as residual activity at 40 uM preincubated for 35 mins followed by enzyme addition measured after 3 mins by Ellman's method relative to control
[4] = biological target: Cholinesterase (Equus caballus) (UniProt P81908); test: Inhibition of horse serum BChE using butyrylthiocholine iodide as substrate assessed as residual activity at 30 uM preincubated for 35 mins followed by enzyme addition measured after 3 mins by Ellman's method relative to control
[5] = Stability of the compound; assay type: physicochemical
Electrophorus electricus [6] = test: Inhibition of electric eel acetylcholinesterase type VI-S using acetylthiocholine iodide as substrate assessed as residual activity at 20 uM preincubated for 35 mins followed by enzyme addition measured after 3 mins by Ellman's method relative to control
[7] = Mixed type inhibition of electric eel acetylcholinesterase type VI-S using acetylthiocholine iodide as substrate assessed as enzyme-inhibitor complex by Lineweaver-Burk plot analysis; parameters: species or system Electrophorus electricus
Electrophorus electricus [8] = test: Reversible inhibition of electric eel acetylcholinesterase type VI-S using acetylthiocholine iodide as substrate by Lineweaver-Burk plot analysis
Cholinesterase [9] = biological target: T1, Cholinesterase; remark: listed apart in the source
Description: as §1

Electrophorus electricus [10] = test: Inhibition of electric eel acetylcholinesterase type VI-S using acetylthiocholine iodide as substrate assessed as residual activity at […] preincubated for 35 mins followed by enzyme addition measured after 3 mins by Ellman's method relative to control
Electrophorus electricus [11] = test: Inhibition of electric eel acetylcholinesterase type VI-S using acetylthiocholine iodide as substrate assessed as residual activity at 8.5 uM preincubated for 35 mins followed by enzyme addition measured after 3 mins by Ellman's method relative to control
[12] = biological target: Cholinesterase (Equus caballus) (UniProt P81908); test: Inhibition of horse serum BChE using butyrylthiocholine iodide as substrate assessed as residual activity at 20 uM preincubated for 35 mins followed by enzyme addition measured after 3 mins by Ellman's method relative to control
Electrophorus electricus [13] = test: Inhibition of electric eel acetylcholinesterase type VI-S using acetylthiocholine iodide as substrate assessed as residual activity at 15 uM preincubated for 35 mins followed by enzyme addition measured after 3 mins by Ellman's method relative to control
Electrophorus electricus [14] = test: Inhibition of electric eel acetylcholinesterase type VI-S using acetylthiocholine iodide as substrate assessed as residual activity at 25 uM preincubated for 35 mins followed by enzyme addition measured after 3 mins by Ellman's method relative to control
[15] = biological target: Cholinesterase (Equus caballus) (UniProt P81908); test: Inhibition of horse serum BChE using butyrylthiocholine iodide as substrate assessed as residual activity at 10 uM preincubated for 35 mins followed by enzyme addition measured after 3 mins by Ellman's method relative to control

T1 sequence (P81908 whole entry): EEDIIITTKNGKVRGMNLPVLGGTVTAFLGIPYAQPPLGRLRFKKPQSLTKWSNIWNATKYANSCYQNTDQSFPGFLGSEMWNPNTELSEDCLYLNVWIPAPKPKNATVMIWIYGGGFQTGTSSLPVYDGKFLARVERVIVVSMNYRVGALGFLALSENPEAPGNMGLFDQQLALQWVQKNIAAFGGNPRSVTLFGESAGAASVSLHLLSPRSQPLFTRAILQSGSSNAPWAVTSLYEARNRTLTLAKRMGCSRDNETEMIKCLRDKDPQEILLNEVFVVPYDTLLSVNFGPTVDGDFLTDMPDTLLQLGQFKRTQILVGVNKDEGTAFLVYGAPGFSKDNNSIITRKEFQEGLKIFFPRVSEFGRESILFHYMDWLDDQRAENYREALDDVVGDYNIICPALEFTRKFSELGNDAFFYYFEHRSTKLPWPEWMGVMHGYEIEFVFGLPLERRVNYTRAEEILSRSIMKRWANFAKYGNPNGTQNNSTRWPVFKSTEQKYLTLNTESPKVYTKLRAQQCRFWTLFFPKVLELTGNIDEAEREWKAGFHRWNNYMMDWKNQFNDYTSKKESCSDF
Cholinesterase (Equus caballus), sequence (P81908 whole entry): as above

CC(C)c1ccc(C(=O)CC(C(=O)NC2CCCCC2)N2CCOCC2)c(C(C)C)c1 (centres undefined)
pIC50 (Cholinesterase [1]): < 4.70

CC(C)c1ccc(C(=O)CC(C(=O)Nc2ccccc2)N2CCCCC2)c(C(C)C)c1 (centres undefined)
Activity [2]: 60.1%

CC(C)c1ccc(C(=O)CC(C(=O)Nc2ccccc2)N2CCOCC2)cc1 (centres undefined)
Activity [3]: 72.8%

CC(C)c1ccc(C(=O)CC(C(=O)Nc2ccccc2)n2ccnc2)cc1 (centres undefined)
Activity [4]: 90%

O=C(CC(C(=O)Nc1ccccc1)N1CCCCC1)c1cccc2c1CCCC2 (centres undefined)
Activity [2]: 78.5%

O=C(CC(C(=O)Nc1ccccc1)N1CCOCC1)c1cccc2c1CCCC2 (centres undefined)
Activity [3]: 87%

O=C(CC(C(=O)Nc1ccccc1)n1ccnc1)c1cccc2c1CCCC2 (centres undefined)
Activity [3]: 83%

COc1cc(NC(=O)C(CC(=O)c2ccc(C(C)C)cc2)N2CCCCC2)cc(OC)c1 (racemic)
Stability [5]: Unstable

COc1cc(NC(=O)C(CC(=O)c2ccc(C(C)C)cc2)n2ccnc2)cc(OC)c1 (racemic)
pIC50 (Cholinesterase [1]): < 4.70

COc1cc(NC(=O)C(CC(=O)c2ccc(C(C)C)cc2)N2CCOCC2)cc(OC)c1 (racemic)
pIC50 (Cholinesterase [1]): < 4.70

COc1cc(NC(=O)C(CC(=O)c2ccc(C(C)C)cc2)N2CCN(C)CC2)cc(OC)c1 (racemic)
pIC50 (Cholinesterase [1]): < 4.70 | Activity (Electrophorus electricus [6]): 76.7%

CC(C)c1ccc(NC(=O)C(CC(=O)c2ccc(C(C)C)cc2)N2CCCCC2)cc1 (racemic)
Stability [5]: Unstable

CC(C)c1ccc(NC(=O)C(CC(=O)c2ccc(C(C)C)cc2)n2ccnc2)cc1 (racemic)
pIC50 (Cholinesterase [1]): < 4.70

CC(C)c1ccc(NC(=O)C(CC(=O)c2ccc(C(C)C)cc2)N2CCOCC2)cc1 (racemic)
pIC50 (Cholinesterase [1]): < 4.70

COc1ccc(NC(=O)C(CC(=O)c2ccc(C(C)C)cc2C(C)C)N2CCCCC2)cc1OC (racemic)
pIC50 (Cholinesterase [1]): < 5.12

COc1ccc(NC(=O)C(CC(=O)c2ccc(C(C)C)cc2C(C)C)N2CCN(C)CC2)cc1OC (racemic)
pIC50 (Cholinesterase [1]): 5.28

CC(C)c1ccc(NC(=O)C(CC(=O)c2ccc(C(C)C)cc2C(C)C)N2CCCCC2)cc1 (racemic)
pKi [7]: 6.28 | inhibition (Electrophorus electricus [8]): Active | IC50 (Cholinesterase [9]): ND(Insoluble)

CC(C)c1ccc(NC(=O)C(CC(=O)c2ccc(C(C)C)cc2C(C)C)n2ccnc2)cc1 (racemic)
pIC50 (Cholinesterase [1]): < 4.70

CC(C)c1ccc(NC(=O)C(CC(=O)c2ccc(C(C)C)cc2C(C)C)N2CCN(C)CC2)cc1 (racemic)
Activity (Electrophorus electricus [10]): 43.6% | pIC50 (Cholinesterase [1]): 6.13

CC(C)c1ccc(C(=O)CC(C(=O)NC2CCCCC2)N2CCN(C)CC2)c(C(C)C)c1 (racemic)
pIC50 (Cholinesterase [1]): 5.65

O=C(CC(C(=O)NC1CCCCC1)N1CCCCC1)c1cccc2c1CCCC2 (racemic)
pIC50 (Cholinesterase [1]): < 4.70

O=C(CC(C(=O)NC1CCCCC1)n1ccnc1)c1cccc2c1CCCC2 (racemic)
pIC50 (Cholinesterase [1]): < 4.70

O=C(CC(C(=O)NC1CCCCC1)N1CCOCC1)c1cccc2c1CCCC2 (racemic)
IC50 (Cholinesterase [9]): ND(Insoluble)

CC(C)c1ccc(NC(=O)C(CC(=O)c2cccc3c2CCCC3)N2CCCCC2)cc1 (racemic)
IC50 (Cholinesterase [9]): ND(Insoluble)

CC(C)c1ccc(NC(=O)C(CC(=O)c2cccc3c2CCCC3)n2ccnc2)cc1 (racemic)
pIC50 (Cholinesterase [1]): < 4.70

CC(C)c1ccc(NC(=O)C(CC(=O)c2cccc3c2CCCC3)N2CCOCC2)cc1 (racemic)
pIC50 (Cholinesterase [1]): < 4.82

CC(C)c1ccc(NC(=O)C(CC(=O)c2cccc3c2CCCC3)N2CCN(C)CC2)cc1 (racemic)
pIC50 (Cholinesterase [1]): 4.97 | Activity (Electrophorus electricus [11]): 86.5%

CC(C)c1ccc(C(=O)CC(C(=O)Nc2ccccc2)N2CCC(Cc3ccccc3)CC2)cc1 (racemic)
pIC50 (Cholinesterase [1]): < 4.70

COc1cc(NC(=O)C(CC(=O)c2ccc(C(C)C)cc2)N2CCN(CCN(C)C)CC2)cc(OC)c1 (racemic)
pIC50 (Cholinesterase [1]): < 4.70

CC(C)c1ccc(C(=O)CC(C(=O)NC2CCCCC2)N2CCCCC2)c(C(C)C)c1 (racemic)
Activity [12]: 72.7%

CC(C)c1ccc(C(=O)CC(C(=O)NC2CCCCC2)N2CCCCC2)cc1 (racemic)
Activity [12]: 65% | Activity (Electrophorus electricus [13]): 63.1%

CC(C)c1ccc(C(=O)CC(C(=O)NC2CCCCC2)N2CCN(C)CC2)cc1 (racemic)
Activity [12]: 66.2% | Activity (Electrophorus electricus [14]): 86.2%

CC(C)c1ccc(C(=O)CC(C(=O)NC2CCCCC2)N2CCOCC2)cc1 (racemic)
Activity [15]: 46.8% | Activity (Electrophorus electricus [14]): 85.1%

CC(C)c1ccc(C(=O)CC(C(=O)NC2CCCCC2)n2ccnc2)c(C(C)C)c1 (racemic)
Activity [12]: 65.8%

CC(C)c1ccc(C(=O)CC(C(=O)NC2CCCCC2)n2ccnc2)cc1 (racemic)
Activity [12]: 76% | Activity (Electrophorus electricus [13]): 65.3%

CC(C)c1ccc(NC(=O)C(CC(=O)c2ccc(C(C)C)cc2)N2CCN(C)CC2)cc1 (racemic)
Activity [2]: 72.4%

CC(C)c1ccc(NC(=O)C(CC(=O)c2ccc(C(C)C)cc2C(C)C)N2CCOCC2)cc1 (racemic)
Activity [15]: 73.6% | Activity (Electrophorus electricus [10]): 44.4%

CC(C)c1ccc2c(c1C(=O)CC(C(=O)NC1CCCCC1)N1CCCCC1)CCCC2 (racemic)
Activity [12]: 61.5%

CC(C)c1ccc2c(c1C(=O)CC(C(=O)NC1CCCCC1)N1CCN(C)CC1)CCCC2 (racemic)
Activity [12]: 39.1%

CC(C)c1ccc2c(c1C(=O)CC(C(=O)NC1CCCCC1)N1CCOCC1)CCCC2 (racemic)
Activity [12]: 75.2%

CC(C)c1ccc2c(c1C(=O)CC(C(=O)NC1CCCCC1)n1ccnc1)CCCC2 (racemic)
Activity [12]: 52.2%

CN1CCN(C(CC(=O)c2cccc3c2CCCC3)C(=O)NC2CCCCC2)CC1 (racemic)
Activity [12]: 56.7%

COc1ccc(NC(=O)C(CC(=O)c2ccc(C(C)C)cc2C(C)C)N2CCOCC2)cc1OC (racemic)
Activity [15]: 62.4%

COc1ccc(NC(=O)C(CC(=O)c2ccc(C(C)C)cc2C(C)C)n2ccnc2)cc1OC (racemic)
Activity [12]: 78.4%
